Reference: patent publication US12209140B2, “Therapeutics for the treatment of glaucoma” (Mayo Foundation for Medical Education and Research, priority 2014, dated 2025)
Entries after “also recorded” stand apart in the source; their conditions may differ.

How the values were obtained:
[1] = tested on: normotensive C57BL/6 mice; test: intraocular pressure change in normotensive mice after treatment; type: in vivo, mouse; conditions: for combination treatment in mice with CKL/CKLP1 and prostaglandin analog LFA (FIG. 2 values, pressure change): alone or combined with latanoprost free acid, additive effects; for IOP lowering in the presence of Erk1/2 inhibitor U0126: mice (n=10), CKLP1+LFA+U0126
Experimental: FIG. 1B is a graph of the change in C57BL/6 mice intraocular pressure following treatment with cromakalim in DMSO or CKLP1 in aqueous carrier. FIG. 2 is a graph of the combination treatment in mice with […]1 and prostaglandin showing additive effects. CKL: -12.77±2.38, […]1: -16.11±2.61, CKLP1+LFA: -26.06±2.98. FIG. 1A is a graph of pressure readings obtained from a pair of human anterior eye segments where one eye was treated with a KATP channel opener prodrug (CKLP1) while the fellow anterior segment was treated with vehicle alone. […] FIG. 1B is a graph of pressure change obtained in normotensive C57BL/6 mice following treatment with parent (CKL) and prodrug (CKLP1). […] FIG. 3 is a graph showing the treatment with various forms of CKL. FIG. 4 is a graph showing the treatment of rabbits (n=5) with CKL-P1 in PBS, optically active isomer. FIG. 5 is a graph showing the treatment with ent-CKLP1(5 mM).

[2] = tested on: human anterior eye segments; test: human anterior segment perfusion organ culture (ex vivo human eye), pressure readings
Experimental: FIG. 1A is a graph of pressure readings obtained from a pair of human anterior eye segments where one eye was treated with a KATP channel opener prodrug (CKLP1) while the fellow anterior segment was treated with vehicle alone. […] FIG. 1B is a graph of pressure change obtained in normotensive C57BL/6 mice following treatment with parent (CKL) and prodrug (CKLP1).

[3] = tested on: rabbits; test: treatment of rabbits (intraocular pressure model); type: in vivo
Experimental: FIG. 4 is a graph showing the treatment of rabbits with CKL-P1 in PBS, optically active isomer. FIG. 3 is a graph showing the treatment with various forms of CKL. FIG. 4 is a graph showing the treatment of rabbits (n=5) with CKL-P1 in PBS, optically active isomer. FIG. 5 is a graph showing the treatment with ent-CKLP1(5 mM).

[4] = tested on: rat cortical neurons; test: H2O2 oxidative stress in rat cortical neurons, lactate dehydrogenase assayed; type: cell-based; conditions: 75 μM H2O2 for 24 hours with and without CKLP1
Text: The present invention also provides a CKLP1 composition used to treat neurons; a CKLP1 composition used for neuroprotection; a method of neuroprotection using a CKLP1 composition; a method of treating neurons using a CKLP1 composition; and methods and compositions for the treatment of ocular hypertension, blindness and loss of vision using a CKLP1 composition. The claimed CKLP1 composition provides neuroprotective properties. […] Therefore, CKLP1 and other prodrugs (as disclosed herein) may represent the first in class treatment for glaucoma that can treat the main risk factor (elevated intraocular pressure) and also the sight of damage (optic nerve).

[5] = tested on: eyes; test: activity in vivo in eyes
Text: The enantiomer of CKLP1 is referred to as “ent-CKLP1”. CKLP1 can be synthesized from levcromakalim while ent-CKLP1 can be synthesized from (+)-cromakalim.

Compound: CC1(C)Oc2ccc(C#N)cc2C(N2CCCC2=O)C1O (centres unmarked) [CKL, cromakalim, reference compound]
- combination treatment in mice with CKL/CKLP1 and prostaglandin analog LFA (FIG. 2 values, pressure change) [1]: −12.77±2.38

Compound: CC1(C)Oc2ccc(C#N)cc2[C@@H](N2CCCC2=O)[C@@H]1OP(=O)(O)O [CKLP1]
- pressure in human anterior segment perfusion organ culture ([2]; CKLP1 2 μM, fellow anterior segment treated with vehicle alone): reduction of pressure; also recorded: reduces pressure
- activity in ex vivo human eyeball model ([2]; ex vivo human eyeball): good activity
- IOP lowering in the presence of Erk1/2 inhibitor U0126 [1]: not able to lower pressure
- combination treatment in mice with CKL/CKLP1 and prostaglandin analog LFA (FIG. 2 values, pressure change) [1]: −16.11±2.61
- biological activity in normotensive mouse model ([1]; mouse): good activity
- activity in rabbit model [3]: good activity
- H2O2 oxidative stress (lactate dehydrogenase levels) [4]: inhibited H2O2 oxidative stress
- activity in vivo in eyes [5]: active

Compound: O=C(O)CCC/C=C\C[C@@H]1[C@@H](CC[C@@H](O)CCc2ccccc2)[C@H](O)C[C@@H]1O [LFA, latanoprost free acid, reference compound]
- IOP lowering in the presence of Erk1/2 inhibitor U0126 [1]: can lower IOP

Compound: CC1(C)Oc2ccc(C#N)cc2[C@H](N2CCCC2=O)[C@H]1OP(=O)(O)O [ent-CKLP1]
- activity in vivo in eyes [5]: active
